These results are taken from article PMC6468496 (2019).

Common to all, as to experiment: fluorescence titration (ligand quenching)
What all share (details): 125 mM K+, 5 mM Mg2+; 40 mM HEPES pH 7.4, 25 °C, 50 nM ligand, RNA titrated, Hill fit

In assay [1] the test system is R10K6 (RNA, aptamer) GGGAGACGCAACUGAAUGAAAAUGUCAUUCAAGACUAGGUUGUGACUGCUUAGGCAGUUGUGGACGGCUAAGCCCACCAGAGGUCCGUAACUAGUCGCGUCAC
Assay [2] concerns V10 (R10K6 with changed J5a/5) (RNA, aptamer) GGGAGACGCAACUGAAUGAAAAUGUCAUUCAAGACUAGGUUGUGACUGCUUAGGCAGUUGUGGACGGCUAAGCCCAAACAAAGUCCGUAACUAGUCGCGUCAC
Assay [3] concerns R10K6_V11 (RNA, aptamer) GGGAGACGCAACAGACUAGGUUGUGACUGCUUAGGCAGUUGUGGACGGCUAAGCCCACCAGAGGUCCGUAACUAGUCGCGUCAC
Assay [4] has as its system V17 (R10K6 with shortened P4) (RNA, aptamer) GGGAGACGCAACUGAAUGAAAAUGUCAUUCAAGACUAGGUUGUGACAAAGGUUGUGGACGGCUAAGCCCACCAGAGGUCCGUAACUAGUCGCGUCAC
Assay [5] concerns V4 (R10K6 without P5 and P5a) (RNA, aptamer) GGGAGACGCAACUGAAUGAAAAUGUCAUUCAAGACUAGGUUGUGACUGCUUAGGCAGUUGUAACUAGUCGCGUCAC
In assay [6] the test system is V8 (R10K6 without stem P5a) (RNA, aptamer) GGGAGACGCAACUGAAUGAAAAUGUCAUUCAAGACUAGGUUGUGACUGCUUAGGCAGUUGUGGACACCAGAGGUCCGUAACUAGUCGCGUCAC
Assay [7] relates to V13 (R10K6 ∆P1∆P2) (RNA, aptamer) GACUAGGUUGUGACUGCUUAGGCAGUUGUGGACGGCUAAGCCCACCAGAGGUCCGUAACUAGUC

In the case of `CCN1CCN(c2cc3c(cc2F)c(=O)c(C(=O)O)cn3C2CC2)CC1`, the binding entry in assay [1] is recorded as “yes”.
Regarding `CCn1cc(C(=O)O)c(=O)c2cc(F)c(N3CCNCC3)cc21`, the binding entry in assay [1] is “yes”.
Regarding `CN1C[C@@H]2C[C@H]1CN2c1cc2c(cc1F)c(=O)c(C(=O)O)cn2C1CC1`, in assay [1], the binding result is “yes”.
A word on the KD: it is the constant that tells how readily two partners part at equilibrium. A higher KD goes with a looser complex. As to `O=C(O)c1cn(C2CC2)c2cc(N3CCNCC3)c(F)cc2c1=O`, the KD in assay [2] was 101 nM; in assay [1], 31 nM; in assay [3], 36 nM; in assay [6] it was 76 nM; in assay [7], 473 nM. For the same molecule, the binding result in assay [4] and in assay [5] was “no” each time.
As to `O=c1ccn(C2CC2)c2cc(N3CCNCC3)c(F)cc12`, the binding result in assay [1] is given as “weak”.
